# Experiments:
# spores = assay: Fluorescence over a range of dye concentrations with decreasing concentrations of spores (Example 5); type: cell-based, Gb. stearothermophilus; details: dye 0.066 mM with nutrients, ex 485/em 530 nm, 50° C.
# Procedure: Dilutions were prepared using Sterile Water For Irrigation (Baxter, Deerfield, Ill.) and tested at a final population ranging between of 1×10^6 and 0 spores. The spore dilutions (100 microlitres) were combined with 200 microlitres of medium, consisting of Acridine Orange and nutrients as described in Example 1, with Acridine Orange concentrations at 1:5000 (0.0066 mM), 1:1000 (0.033 mM) and 1:500 (0.066 mM), each of the resulting mixtures was added to a well of a plate. The plate was subsequently placed in a preheated plate reader (BioTek Synergy 4 plate reader, Winooski, Vt.) at 50° C. and incubated for 60 min, during which fluorescence intensity readings were taken using excitation at 485 nm and emission at 530 nm. A summary of the normalized data is listed below in Table 5a-5c.
# [1] = test system: Gb. stearothermophilus spores; assay: Fluorescence with spores after dye medium was exposed to sterilization temperature, autoclaved vs not autoclaved (Example 2); type: cell-based; details: ex 485/em 530 nm, 50° C.
# Procedure: Dilutions of a Gb. stearothermophilus spore suspension described above were subjected to heat shock treatment at 80° C. for 10 min. The dilutions were prepared using Sterile Water For Irrigation (Baxter, Deerfield, Ill.) and tested at a final population of 1×10^6 and 0 spores. The spore dilutions (100 microlitres) were combined with 200 microlitres of medium, consisting of Acridine Orange and nutrients as described in Example 1, that had been subjected to a 15 min 121° C. (250° F.) vacuum assisted cycle in a AMSCO Scientific SG-120 Eagle/Century Series steam sterilizer (Steris, Mentor Ohio), and each of the resulting mixtures was added to a well of a plate. Un-autoclaved medium was used as a control. […] The experiment was performed with both heat shocked and non-heat shocked spores. A summary of the normalized data is listed below in Tables 2a-2c.
structure (smiles),measurement,setting,value
CN(C)c1ccc2cc3ccc(N(C)C)cc3nc2c1 [Acridine Orange],Fluorescence intensity (normalized),"spores; E4 spores, 0:00:00",0.0
same,Fluorescence intensity (normalized),"spores; E4 spores, 0:15:00",3261.5
same,Fluorescence intensity (normalized),"spores; E4 spores, 0:30:00",3464.0
same,Fluorescence intensity (normalized),"spores; E4 spores, 0:45:00",3586.5
same,Fluorescence intensity (normalized),"spores; E4 spores, 1:00:00",3626.5
same,Fluorescence intensity (normalized),"spores; E5 spores, 0:00:00",0.0
same,Fluorescence intensity (normalized),"spores; E5 spores, 0:15:00",3422.5
same,Fluorescence intensity (normalized),"spores; E5 spores, 0:30:00",3533.0
same,Fluorescence intensity (normalized),"spores; E5 spores, 0:45:00",3606.0
same,Fluorescence intensity (normalized),"spores; E5 spores, 1:00:00",3616.0
same,Fluorescence intensity (normalized),"spores; E6 spores, 0:00:00",0.0
same,Fluorescence intensity (normalized),"spores; E6 spores, 0:15:00",13727.5
same,Fluorescence intensity (normalized),"spores; E6 spores, 0:30:00",15331.5
same,Fluorescence intensity (normalized),"spores; E6 spores, 0:45:00",15529.5
same,Fluorescence intensity (normalized),"spores; E6 spores, 1:00:00",15629.0
same,Fluorescence intensity (normalized),"[1]; Autoclaved (15 min 121° C.) dye + nutrient medium, heat shocked E6 germinating spores, 0 min",0
same,Fluorescence intensity (normalized),"[1]; Autoclaved (15 min 121° C.) dye + nutrient medium, heat shocked E6 germinating spores, 30 min",6211.5
same,Fluorescence intensity (normalized),"[1]; Autoclaved (15 min 121° C.) dye + nutrient medium, heat shocked E6 germinating spores, 60 min",8652.5
same,Fluorescence intensity (normalized),"[1]; Autoclaved (15 min 121° C.) dye + nutrient medium, heat shocked E6 germinating spores, 90 min",9955.5
same,Fluorescence intensity (normalized),"[1]; Autoclaved (15 min 121° C.) dye + nutrient medium, heat shocked E6 germinating spores, 120 min",10376.5
same,Fluorescence intensity (normalized),"[1]; Autoclaved (15 min 121° C.) dye + nutrient medium, heat shocked E6 germinating spores, 150 min",10694.25
same,Fluorescence intensity (normalized),"[1]; Autoclaved (15 min 121° C.) dye + nutrient medium, heat shocked E6 germinating spores, 180 min",10803
same,Fluorescence intensity (normalized),"[1]; Autoclaved (15 min 121° C.) dye + nutrient medium, heat shocked, 0 spores, 0 min",0
same,Fluorescence intensity (normalized),"[1]; Autoclaved (15 min 121° C.) dye + nutrient medium, heat shocked, 0 spores, 30 min",522.25
same,Fluorescence intensity (normalized),"[1]; Autoclaved (15 min 121° C.) dye + nutrient medium, heat shocked, 0 spores, 60 min",588.75
same,Fluorescence intensity (normalized),"[1]; Autoclaved (15 min 121° C.) dye + nutrient medium, heat shocked, 0 spores, 90 min",779.75
same,Fluorescence intensity (normalized),"[1]; Autoclaved (15 min 121° C.) dye + nutrient medium, heat shocked, 0 spores, 120 min",870
same,Fluorescence intensity (normalized),"[1]; Autoclaved (15 min 121° C.) dye + nutrient medium, heat shocked, 0 spores, 150 min",886.5
same,Fluorescence intensity (normalized),"[1]; Autoclaved (15 min 121° C.) dye + nutrient medium, heat shocked, 0 spores, 180 min",960.5
same,Fluorescence intensity (normalized),"[1]; Autoclaved (15 min 121° C.) dye + nutrient medium, non-heat shocked E6 germinating spores, 0 min",0
same,Fluorescence intensity (normalized),"[1]; Autoclaved (15 min 121° C.) dye + nutrient medium, non-heat shocked E6 germinating spores, 14 min",609
same,Fluorescence intensity (normalized),"[1]; Autoclaved (15 min 121° C.) dye + nutrient medium, non-heat shocked E6 germinating spores, 30 min",2599
same,Fluorescence intensity (normalized),"[1]; Autoclaved (15 min 121° C.) dye + nutrient medium, non-heat shocked E6 germinating spores, 44 min",4753
same,Fluorescence intensity (normalized),"[1]; Autoclaved (15 min 121° C.) dye + nutrient medium, non-heat shocked E6 germinating spores, 58 min",6508
same,Fluorescence intensity (normalized),"[1]; Autoclaved (15 min 121° C.) dye + nutrient medium, non-heat shocked, 0 spores, 0 min",0
same,Fluorescence intensity (normalized),"[1]; Autoclaved (15 min 121° C.) dye + nutrient medium, non-heat shocked, 0 spores, 14 min",−212
same,Fluorescence intensity (normalized),"[1]; Autoclaved (15 min 121° C.) dye + nutrient medium, non-heat shocked, 0 spores, 30 min",−263
same,Fluorescence intensity (normalized),"[1]; Autoclaved (15 min 121° C.) dye + nutrient medium, non-heat shocked, 0 spores, 44 min",−278
same,Fluorescence intensity (normalized),"[1]; Autoclaved (15 min 121° C.) dye + nutrient medium, non-heat shocked, 0 spores, 58 min",−287
same,Fluorescence intensity (normalized),"[1]; Not autoclaved dye + nutrient medium, heat shocked E6 germinating spores, 0 min",0
same,Fluorescence intensity (normalized),"[1]; Not autoclaved dye + nutrient medium, heat shocked E6 germinating spores, 30 min",11623.75
same,Fluorescence intensity (normalized),"[1]; Not autoclaved dye + nutrient medium, heat shocked E6 germinating spores, 60 min",17121.25
same,Fluorescence intensity (normalized),"[1]; Not autoclaved dye + nutrient medium, heat shocked E6 germinating spores, 90 min",18928.25
same,Fluorescence intensity (normalized),"[1]; Not autoclaved dye + nutrient medium, heat shocked E6 germinating spores, 120 min",19653.75
same,Fluorescence intensity (normalized),"[1]; Not autoclaved dye + nutrient medium, heat shocked E6 germinating spores, 150 min",19884.5
same,Fluorescence intensity (normalized),"[1]; Not autoclaved dye + nutrient medium, heat shocked E6 germinating spores, 180 min",20008.25
same,Fluorescence intensity (normalized),"[1]; Not autoclaved dye + nutrient medium, heat shocked, 0 spores, 0 min",0
same,Fluorescence intensity (normalized),"[1]; Not autoclaved dye + nutrient medium, heat shocked, 0 spores, 30 min",813
same,Fluorescence intensity (normalized),"[1]; Not autoclaved dye + nutrient medium, heat shocked, 0 spores, 60 min",875.75
same,Fluorescence intensity (normalized),"[1]; Not autoclaved dye + nutrient medium, heat shocked, 0 spores, 90 min",996.25
same,Fluorescence intensity (normalized),"[1]; Not autoclaved dye + nutrient medium, heat shocked, 0 spores, 120 min",1099
same,Fluorescence intensity (normalized),"[1]; Not autoclaved dye + nutrient medium, heat shocked, 0 spores, 150 min",1114.5
same,Fluorescence intensity (normalized),"[1]; Not autoclaved dye + nutrient medium, heat shocked, 0 spores, 180 min",990.25
same,Fluorescence intensity (normalized),"[1]; Not autoclaved dye + nutrient medium, non-heat shocked E6 germinating spores, 0 min",00
same,Fluorescence intensity (normalized),"[1]; Not autoclaved dye + nutrient medium, non-heat shocked E6 germinating spores, 14 min",597
same,Fluorescence intensity (normalized),"[1]; Not autoclaved dye + nutrient medium, non-heat shocked E6 germinating spores, 30 min",2878
same,Fluorescence intensity (normalized),"[1]; Not autoclaved dye + nutrient medium, non-heat shocked E6 germinating spores, 44 min",5314
same,Fluorescence intensity (normalized),"[1]; Not autoclaved dye + nutrient medium, non-heat shocked E6 germinating spores, 58 min",7289
same,Fluorescence intensity (normalized),"[1]; Not autoclaved dye + nutrient medium, non-heat shocked, 0 spores, 0 min",0
same,Fluorescence intensity (normalized),"[1]; Not autoclaved dye + nutrient medium, non-heat shocked, 0 spores, 14 min",−334
same,Fluorescence intensity (normalized),"[1]; Not autoclaved dye + nutrient medium, non-heat shocked, 0 spores, 30 min",−456
same,Fluorescence intensity (normalized),"[1]; Not autoclaved dye + nutrient medium, non-heat shocked, 0 spores, 44 min",−484
same,Fluorescence intensity (normalized),"[1]; Not autoclaved dye + nutrient medium, non-heat shocked, 0 spores, 58 min",−476
